# Results from patent US8088412B2, “Intralymphatic chemotherapy drug carriers” (priority 2008, dated 2012).
# Read-outs that look alike come from different tables or passages of the source. Marks after values point to notes of the source that are not given here.
# Key:
# [1] = test system: MDA-MB-468LN; experiment: Cell proliferation over 72 hrs, resazurin blue; format: cell-based, human
# Description: Preceding proliferation studies, cells were trypsinized and seeded into 96-well plates (5,000 cells/well). […] After 4 hrs, well fluorescence was measured (λex 560 nm, λem 590 nm) using a fluorophotometer (SpectraMax Gemini; Molecular Devices, Sunnyvale, Calif.). IC50 was determined as the midpoint between saline (positive) and cell-free (negative) controls for each plate.
# [2] = test system: MDA-MB-231; experiment: In vitro cell toxicity (DMEM, resazurin blue, 72 hrs); format: cell-based, human
# Description: (§1) Cell lines were seeded into 96-well plates (5000 cells/well) in DMEM medium supplemented with 5% FBS and 1% penicillin/streptomycin.
# [3] = test system: MCF7; experiment: as above; format: cell-based, human
# Description: as §1
# [4] = Tissue distribution after subcutaneous cisplatin or cisplatin-HA into right mammary fat pad; format: in vivo, Sprague-Dawley rats
# Description: Animals were allowed to recover with access to food and water. […] Organs and tissues were washed with 0.9% saline and frozen (−80° C.) until analysis. Plasma was separated by centrifugation from whole blood and frozen (−80° C.).
# In vitro release samples (n=3) and plasma samples (n=5) were diluted 200-fold and 10-fold, respectively, with 0.1% nitric acid for analysis. […] Lymph nodes were processed similarly using 10 mg of tissue. After digestion, samples were homogenized (Tissue Tearor, BioSpec Products Inc., Bartlesville, Okla.). All samples were centrifuged (17 000×g, 20 min), and the supernate used for analysis.
# Analysis was performed on a Varian SpectrAA GTA-110 with graphite furnace and partition tubes. Samples (21 μL) were injected using the autosampler, followed by 19 μL of 0.1% nitric acid. […] The furnace program was as follows: ramp 25 to 80° C., hold 2 s, ramp to 120° C., hold 10 s, ramp to 1000° C., hold 5 s, ramp to 2700° C., hold 2 s, cool to 25° C. over 20 s. The graphite partition tube was cleaned every 40 samples by baking at 2800° C. for 7 s. Argon was used as the injection and carrier gas.
# [5] = test system: MDA-1986 cells; experiment: In vivo efficacy of HA-cisplatin, orthotopic HNSCC model; set-up: species or system Nu/Nu female athymic nude mice; conditions: intravenous, weekly dose of 3.3 mg/kg for 3 weeks; 3 mice
# From the text: The in vivo efficacy of HA-cisplatin was studied. All treatment began once animal HNSCC tumors reached 100 mm3 volume. Treatment commenced for 3 weeks. All animals were given 5×10^5 MDA-1986 cells in the buccal mucosa of the left cheek (which is a novel orthotopic HNSCC model I developed this year) and tumors develop in 2-3 weeks.
# [6] = test system: MDA-MB-468LN tumor cells; experiment: Efficacy of HA-doxorubicin vs intravenous doxorubicin, breast tumor xenograft; format: in vivo, nude mice; conditions: 6 weeks post-implantation; in saline via the tail vein, doses at 3 and 5 weeks
# Description: Nude nu/nu mice were implanted with 1×10^6 cells (MDA-MB-468LN human breast cancer cells) into the mammary fatpad, after approximately 4 weeks a 100-200 mm^3 tumor had developed in the axillary lymph node package. Animals were randomly divided into four treatment groups of five animals each: intravenous saline, s.q. HA, intravenous cisplatin, or s.q. HA-cisplatin. At this point, doses were administered to the animals. In the HA-cisplatin and the HA groups, HA-cisplatin (3.3 mg/kg based on Pt-content) or HA (3.3 mg/kg) was dissolved in 100 mcL saline was injected subcutaneously peritumorally. […] In all study groups, a second dose was administered after 1 week. Tumor volumes were measured weekly using calipers and the formula: Volume=0.52×(width^2*length). Animals were euthanized when the tumor volume exceeded […] or the body score index fell below 2.
# To evaluate the efficacy of HA-doxorubicin conjugates injected subcutaneously in the […] compared with intravenous doxorubicin, the following experiment was performed. MDA-MB-468LN tumor cells into nude mice as described in [128] and divided into four groups of five animals each. After 3 weeks, HA-DOX was injected peritumorally at 3.3 mg/kg (DOX basis), DOX was injected in saline via the tail vein, HA was injected peritumorally, and saline was injected via the tail vein. […]
smiles,measurement,setting,value
"N.N.[Cl][Pt][Cl] [Cisplatin, cis-diamminedichloroplatinum, reference compound]",IC50,[1]; HA carriers on a Pt-basis equivalent to cisplatin,5 µg/mL
same,IC50,"[1]; Pt-basis, read-out: IC50",17 µM
same,IC50,[2]; cisplatin basis,4 µg/mL
same,IC50,"[2]; cisplatin basis, listed as cisplatin",7 µg/mL
same,IC50,[2]; read-out: IC50,13 µM
same,IC50,"[3]; MCF-7, cisplatin basis",7 µg/mL
same,IC50,"[3]; MCF-7, read-out: IC50",23 µM
same,AUC (0-96 hrs),"[4]; Bladder, subcutaneous into right mammary fatpad of female rats",208.5 µg·h/g
same,AUC (0-96 hrs),"[4]; Brain, subcutaneous into right mammary fatpad",442.5 µg·h/g
same,AUC (0-96 hrs),"[4]; Heart, subcutaneous into right mammary fatpad",459.0 µg·h/g
same,AUC (0-96 hrs),"[4]; Kidneys, subcutaneous into right mammary fatpad",650.9 µg·h/g
same,AUC (0-96 hrs),"[4]; Left lymph node (LLN), subcutaneous into right mammary fatpad",349.5 µg·h/g
same,AUC (0-96 hrs),"[4]; Liver, subcutaneous into right mammary fatpad",415.6 µg·h/g
same,AUC (0-96 hrs),"[4]; Lungs, subcutaneous into right mammary fatpad",409.8 µg·h/g
same,AUC (0-96 hrs),"[4]; Muscle, subcutaneous into right mammary fatpad",371.5 µg·h/g
same,AUC (0-96 hrs),"[4]; Plasma, subcutaneous into right mammary fatpad",174.1 µg·h/g
same,AUC (0-96 hrs),"[4]; Right lymph node (RLN), subcutaneous into right mammary fatpad, p < 0.05",446.0 ^† μg · hr/g
same,AUC (0-96 hrs),"[4]; Spleen, subcutaneous into right mammary fatpad",349.1 µg·h/g
same,serum Cmax,[4]; intravenous (as worded in legend of FIG. 10B),over 4 micrograms/mL
same,tumor growth delay,[5],about 3 weeks
"COc1cccc2c1C(=O)c1c(O)c3c(c(O)c1C2=O)C[C@@](O)(C(=O)CO)C[C@@H]3O[C@H]1C[C@H](N)[C@H](O)[C@H](C)O1 [DOX, doxorubicin]",tumor volume,[6],greater than 300 mm^3
